Data set [1] concerns the target T1, Lethal factor (Bacillus anthracis) (UniProt P15917).
T1 sequence (whole entry): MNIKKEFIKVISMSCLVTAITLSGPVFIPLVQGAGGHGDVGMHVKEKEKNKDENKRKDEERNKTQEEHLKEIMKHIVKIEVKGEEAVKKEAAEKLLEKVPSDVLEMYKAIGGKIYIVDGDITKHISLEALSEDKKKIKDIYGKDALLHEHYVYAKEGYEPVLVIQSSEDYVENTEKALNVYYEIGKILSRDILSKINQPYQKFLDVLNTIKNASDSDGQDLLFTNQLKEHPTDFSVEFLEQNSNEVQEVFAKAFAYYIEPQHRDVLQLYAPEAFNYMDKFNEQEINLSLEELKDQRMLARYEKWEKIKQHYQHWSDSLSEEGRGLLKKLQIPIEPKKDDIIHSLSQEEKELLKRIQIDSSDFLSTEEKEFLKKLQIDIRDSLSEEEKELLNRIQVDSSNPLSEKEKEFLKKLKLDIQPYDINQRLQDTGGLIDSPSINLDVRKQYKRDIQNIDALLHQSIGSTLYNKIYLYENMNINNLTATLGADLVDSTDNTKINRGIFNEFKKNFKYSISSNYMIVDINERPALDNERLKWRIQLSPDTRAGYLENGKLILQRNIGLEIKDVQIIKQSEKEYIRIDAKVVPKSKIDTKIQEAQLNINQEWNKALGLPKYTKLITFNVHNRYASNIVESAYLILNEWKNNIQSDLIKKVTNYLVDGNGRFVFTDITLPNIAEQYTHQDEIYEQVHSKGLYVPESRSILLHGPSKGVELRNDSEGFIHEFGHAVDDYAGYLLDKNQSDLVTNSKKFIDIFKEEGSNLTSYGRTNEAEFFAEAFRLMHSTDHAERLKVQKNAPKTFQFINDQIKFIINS
Description: Protection against Bacillus anthracis lethal toxin-mediated cytotoxicity in mouse RAW264.7 cells assessed as change in viability at 0.125 to 12.5 uM relative to toxin-treated control. It is filed as cell-based.

In data set [2] the target is Diphtheria toxin (Corynebacterium diphtheriae) (UniProt Q5PY51). Description: Protection against diphtheria toxin-mediated cytotoxicity in CHOK1 cells assessed as cell viability after 48 hrs by WST1 dye reduction assay. It is filed as cell-based. As to conditions: CHO-K1.
Diphtheria toxin (Corynebacterium diphtheriae), sequence (Q5PY51 as listed by the source): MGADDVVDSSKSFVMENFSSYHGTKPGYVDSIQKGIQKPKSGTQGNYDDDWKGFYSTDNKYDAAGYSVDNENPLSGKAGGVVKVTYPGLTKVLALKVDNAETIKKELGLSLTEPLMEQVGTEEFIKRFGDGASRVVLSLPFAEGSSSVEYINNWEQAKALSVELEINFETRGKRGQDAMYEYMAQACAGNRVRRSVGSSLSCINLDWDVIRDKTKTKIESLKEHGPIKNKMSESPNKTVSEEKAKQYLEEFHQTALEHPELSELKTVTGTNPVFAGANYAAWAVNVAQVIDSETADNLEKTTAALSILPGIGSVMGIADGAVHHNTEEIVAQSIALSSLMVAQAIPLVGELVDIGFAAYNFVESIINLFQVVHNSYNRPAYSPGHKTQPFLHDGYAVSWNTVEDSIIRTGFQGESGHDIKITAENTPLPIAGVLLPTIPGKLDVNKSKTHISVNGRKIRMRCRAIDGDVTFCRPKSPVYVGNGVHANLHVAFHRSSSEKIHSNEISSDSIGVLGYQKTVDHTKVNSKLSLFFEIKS
The target of data set [3] is Protective antigen (Bacillus anthracis) (UniProt P13423). Description: Inhibition of Bacillus anthracis protective antigen pore formation in mouse RAW264.7 cells at 12.5 uM after 2 hrs. It is filed as cell-based.
Protective antigen (Bacillus anthracis), sequence (P13423 whole entry): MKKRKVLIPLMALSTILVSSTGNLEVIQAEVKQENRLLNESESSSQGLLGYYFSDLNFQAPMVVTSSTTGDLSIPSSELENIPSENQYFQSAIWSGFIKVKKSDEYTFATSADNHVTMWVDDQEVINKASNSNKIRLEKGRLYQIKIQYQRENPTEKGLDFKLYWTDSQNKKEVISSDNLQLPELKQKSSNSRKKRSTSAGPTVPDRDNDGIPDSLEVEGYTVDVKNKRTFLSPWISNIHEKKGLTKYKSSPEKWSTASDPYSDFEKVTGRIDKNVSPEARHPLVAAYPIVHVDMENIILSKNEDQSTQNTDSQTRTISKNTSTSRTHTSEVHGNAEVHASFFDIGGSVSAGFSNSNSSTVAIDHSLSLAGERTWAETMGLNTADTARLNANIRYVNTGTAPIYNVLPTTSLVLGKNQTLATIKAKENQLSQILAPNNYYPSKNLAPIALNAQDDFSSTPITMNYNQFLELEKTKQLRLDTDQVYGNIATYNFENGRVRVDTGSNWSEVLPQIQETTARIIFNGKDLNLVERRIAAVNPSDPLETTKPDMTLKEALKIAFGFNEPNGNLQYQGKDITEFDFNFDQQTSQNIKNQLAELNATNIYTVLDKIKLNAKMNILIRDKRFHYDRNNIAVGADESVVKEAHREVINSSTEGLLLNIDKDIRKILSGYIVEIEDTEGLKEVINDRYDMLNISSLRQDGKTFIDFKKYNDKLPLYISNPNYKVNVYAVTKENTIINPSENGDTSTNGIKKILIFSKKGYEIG
Data set [4] has the same target. As to the kind of experiment: Inhibition of Bacillus anthracis protective antigen binding to cell surface of mouse RAW264.7 cells at 12.5 uM after 2 hrs by flow cytometry. The format is cell-based. For orientation: Flow cytometry measures light scatter and fluorescence of single cells or particles in a stream.
In a further data set the test system is Plasmodium falciparum. As to the kind of experiment: Antimalarial activity against Plasmodium falciparum. The format is functional, organism-based.
The subject of a further data set is Serum. As to the kind of experiment: Drug level in human serum. The format is ADME, cell-free. As to conditions: read-out: Drug uptake.
In a further data set the test system is CHO-K1. Description: Inhibition of cholera toxin-mediated intoxication in CHOK1 cells assessed as cAMP levels after 4 hrs by HTRF assay. The format is cell-based. As to conditions: Vibrio cholerae.
Data set [5] concerns the target T2, Calmodulin-sensitive adenylate cyclase (Bacillus anthracis) (UniProt P40136).
T2 sequence (whole entry): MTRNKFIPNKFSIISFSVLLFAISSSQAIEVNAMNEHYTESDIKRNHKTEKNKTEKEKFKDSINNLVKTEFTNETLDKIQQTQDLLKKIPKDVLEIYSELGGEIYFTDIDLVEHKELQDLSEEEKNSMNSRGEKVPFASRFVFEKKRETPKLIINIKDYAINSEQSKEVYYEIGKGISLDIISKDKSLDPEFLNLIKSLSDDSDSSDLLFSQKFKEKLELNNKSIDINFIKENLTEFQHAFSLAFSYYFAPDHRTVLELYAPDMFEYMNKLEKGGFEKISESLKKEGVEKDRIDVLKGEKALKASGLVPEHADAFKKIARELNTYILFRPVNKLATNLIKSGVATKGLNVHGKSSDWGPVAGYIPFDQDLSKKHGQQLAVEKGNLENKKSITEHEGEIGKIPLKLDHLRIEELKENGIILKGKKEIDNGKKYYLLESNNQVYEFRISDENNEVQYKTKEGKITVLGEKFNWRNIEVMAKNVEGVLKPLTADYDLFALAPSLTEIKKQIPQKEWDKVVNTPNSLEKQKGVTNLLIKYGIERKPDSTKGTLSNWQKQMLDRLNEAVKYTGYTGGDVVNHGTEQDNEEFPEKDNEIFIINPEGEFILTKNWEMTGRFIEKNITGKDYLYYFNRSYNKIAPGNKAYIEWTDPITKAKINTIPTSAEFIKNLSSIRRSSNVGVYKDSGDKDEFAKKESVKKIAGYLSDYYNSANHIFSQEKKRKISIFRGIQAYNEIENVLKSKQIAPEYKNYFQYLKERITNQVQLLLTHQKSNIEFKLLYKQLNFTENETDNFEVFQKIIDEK
Description: Inhibition of Bacillus anthracis edema toxin-mediated intoxication in CHOK1 cells assessed as cAMP levels after 4 hrs by HTRF assay. Conditions: CHO-K1. The format is cell-based. Background: cAMP levels reflect the balance of adenylyl cyclase and phosphodiesterase activity.

Data set [6] has as its system Rattus norvegicus. As to the kind of experiment: Toxicity in Bacillus anthracis lethal toxin-mediated intoxicated Fischer 344 rat assessed as adverse side effects administered through cannula. It is filed as organism-based. As to conditions: in vivo, other.
The subject of data set [7] is Rattus norvegicus. Description: Protection against Bacillus anthracis lethal toxin-mediated intoxication in Fischer 344 rat assessed as time to death at 5.4 mg/kg administered through cannula. The format is functional.
Data set [8] concerns Rattus norvegicus. As to the kind of experiment: Protection against Bacillus anthracis lethal toxin-mediated intoxication in Fischer 344 rat assessed as time to death at 54 mg/kg administered through cannula. The format is functional.

Active and inactive are the calls of the source. The calls are words filed in the database; no cut-off is given here.

For `CC1(C)CCC(C)(C)c2cc(C(=O)Nc3ccc(C(=O)O)cc3)ccc21`, the fold change (FC) in data set [1] came to 3.9. For `CCCNCC(O)COc1ccccc1C(=O)CCc1ccccc1` (centres undefined), the fold change (FC) in data set [1] was 3.1. On the same count and under the same terms, under `O=S(=O)(NCCNC/C=C/c1ccc(Br)cc1)c1cccc2cnccc12` stands 2.9; under `CC1=C(/C=C/C(C)=C/C=C/C(C)=C/C(=O)O)C(C)(C)CCC1`, 3. Still for that read-out and setting: the figure for `CC1=C(/C=C/C(C)=C/C=C/C(C)=C\C(=O)O)C(C)(C)CCC1` is 3.2. As for `CC(C)COCC(CN(Cc1ccccc1)c1ccccc1)N1CCCC1` (centres undefined) [BEPRIDIL], the outcome in [2], in data set [3] and in [5] was Active. Besides, the outcome (in data set [4]; in the data set with CHO-K1) was inactive. The compound further gave an IC50 with Plasmodium falciparum of 2500 nM. In addition, the concentration with Serum came out at 6.8 µM. Take `O=c1[nH]c2cc(C(F)(F)F)ccc2n1-c1cc(C(F)(F)F)ccc1O`: the fold change (FC) in data set [1] came out at 2.8. The same measure, in the same setting: the figure for `C1CCC(/N=C(\NC23CC4CC(CC(C4)C2)C3)N2CCOCC2)CC1` is 3.9; for `N=C(NC(=O)c1nc(Cl)c(N)nc1N)Nc1ccccc1` it is 2.8. Consider `CCCCc1oc2ccccc2c1C(=O)c1cc(I)c(OCCN(CC)CC)c(I)c1` [AMIODARONE], for which the Activity entry with Rattus norvegicus [6] is listed as “Non-toxic”; in the data set with Rattus norvegicus [7] it was 64.8 min; with Rattus norvegicus [8] it was 82.6 min. The result in [2], in data set [3] and in data set [5] was Active. Also, the outcome (in [4]; in the data set with CHO-K1) was inactive. Moreover, in the data set with Serum, the concentration was 3.75 µM. Consider `COc1ccc(S(=O)(=O)N(CCO)c2ccccc2CN(C)C/C=C/c2ccc(Cl)cc2)cc1`, for which, in data set [1], the fold change (FC) is 6.3. `N[C@@H](COP(=O)(O)O)C(=O)O`: the fold change (FC) in [1] came to 2.8. On the same count and under the same terms, the figure for `CCCCCCCCCCCCCCCCOC[C@@H](COP(=O)([O-])OCC[N+](C)(C)C)OC(C)=O` is 3.2; for `CC1=C(/C=C/C(C)=C\C=C\C(C)=C\C(=O)O)C(C)(C)CCC1` it is 2.6; for `CC1(C)Oc2ccc(C#N)cc2[C@@H](OC2=CC(=O)CC2)[C@@H]1O` it is 3.

A word on the IC50: it is the midpoint of a concentration-inhibition curve. A higher IC50 goes with weaker potency in that assay.
